Entries after “also recorded” stand apart in the source; their conditions may differ.
Assays:
c-kit in HEL92.1.7 cells = assay: FACS-based c-kit degradation assay in HEL92.1.7 cells; format: cell-based; details: about 18 h
Method: (§1) Two leukemia cell lines, HEL92.1.7 and Kasumi-1, were used for testing c-kit degradation induced by Hsp90 inhibitors of the invention. […] The cells were collected and centrifuged (SORVALL RT 6000D) at 1200 rpm for 5 min. The supernatants were discarded, and the cells were washed one time with 1×PBS. After centrifugation the cells were stained with FITC conjugated c-kit antibody (MBL International, Cat# K0105-4) in […] 1×PBS at 4° C. for 1 h. The samples were read and analysized with FACSCalibur flow cytometer (Becton Dicknson).

c-kit in Kasumi-1 cells [1] = assay: FACS-based c-kit degradation assay in Kasumi-1 cells; format: cell-based; details: about 18 h
Method: as §1

c-kit in Kasumi-1 cells [2] = assay: Western blot analysis of c-Kit in Kasumi-1 cells; format: cell-based
Text: The results of the FACS analysis were confirmed with Western blot analysis (see FIG. 5). […] In contrast, 17-AAG had no effect of c-Kit protein levels.

[3] = tested on: RERF-LC-AI^IVP human lung tumor cells; assay: RERF-LC-AI^IVP nude mouse xenograft model; format: in vivo; details: for Growth rate of RERF-LC-AI^IVP tumors: 5 times per week, 15 doses
Method: The human squamous non-small cell lung cancer cell line, RERF-LC-AI (RCB0444; S. Kyoizumi, et al., Cancer. Res. 45:3274-3281, 1985), was obtained from the Riken Cell Bank (Tsukuba, Ibaraki, Japan). […] FBS was obtained from American Type Culture Collection (Manassas, Va., USA) and all other reagents were obtained from Invitrogen Corp. (Carlsbad, Calif., USA). Approximately 4−5×10(6) cells that had been cryopreserved in liquid nitrogen were rapidly thawed at 37° C. and transferred to a 175 cm^2 tissue culture flask containing 50 ml of growth media and then incubated at 37° C. in a 5% CO2 incubator.
The growth media was replaced every 2-3 days until the flask became 90% confluent, typically in 5-7 days. To passage and expand the cell line, a 90% confluent flask was washed with 10 ml of room temperature phosphate buffered saline (PBS) and the cells were disassociated by adding 5 ml 1× trypsin-EDTA (Invitrogen) and incubating at 37° C. until the cells detached from the surface of the flask. To inactivate the trypsin, 5 ml of growth media was added and then the contents of the flask were centrifuged to pellet the cells. The supernatant was aspirated and the cell pellet was resuspended in 10 ml of growth media and the cell number determined using a hemocytometer. Approximately 1-3×10(6) cells per flask were seeded into 175 cm^2 flasks containing 50 ml of growth media and incubated at 37° C. in a 5% CO2 incubator. When the flasks reached 90% confluence, the above passaging process was repeated until sufficient cells had been obtained for implantation into mice.
Seven to eight week old, female Crl:CD-1-nuBR (nude) mice were obtained from Charles River Laboratories (Wilmington, Mass., USA). Animals were housed 4-5/cage in micro-isolators, with a 12 hr/12 hr light/dark cycle, acclimated for at least 1 week prior to use and fed normal laboratory chow ad libitum. Studies were conducted on animals between 8 and 12 weeks of age at implantation. […] Using a 27 gauge needle and 1 cc syringe, 0.1 ml of the cell suspension was injected subcutaneously into the flank of each nude mouse. Tumor volumes (V) were calculated by caliper measurement of the width (W), length (L) and thickness (T) of tumors using the following formula: V=0.5236×(L×W×T).
In vivo passaged RERF-LC-AI tumor cells (RERF-LC-AI^IVP) were isolated to improve the rate of tumor implantation relative to the parental cell line in nude mice. RERF-LC-AI tumors were permitted to develop in vivo until they reached approximately 250 mm^3 in volume, which required approximately 3 weeks following implantation. Mice were euthanized via CO2 asphyxiation and their exteriors sterilized with 70% ethanol in a laminar flow hood. Using sterile technique, tumors were excised and diced in 50 ml PBS using a scalpel blade. […]

[4] = tested on: Her2, an Hsp90 client protein; assay: Degradation of Her2 in BT-474 cells (Western blot); format: cell-based, Human; details: overnight
Method: Human high-Her2 breast carcinoma BT474 (HTB-20), SK-BR-3 (HTB-30) and MCF-7 breast carcinoma (HTB-22) from American Type Culture Collection, VA, USA were grown in Dulbecco's modified Eagle's medium with 4 mM L-glutamine and antibiotics (100 IU/ml penicillin and 100 ug/ml streptomycine; GibcoBRL). To obtain exponential cell growth, cells were trypsinized, counted and seeded at a cell density of 0.5×10^6 cells/ml regularly, every 3 days. All experiments were performed on day 1 after cell passage.
After treatment, each cytoplasmic sample was prepared from 1×10^6 cells by incubation of cell lysis buffer (#9803, cell Signaling Technology) on ice for 10 minutes. The resulting supernatant used as the cytosol fractions were dissolved with sample buffer for SDS-PAGE and run on a SDS-PAGE gel, blotted onto a nitrocellulose membrane by using semi-dry transfer. Non-specific binding to nitrocellulose was blocked with 5% skim milk in TBS with 0.5% Tween at room temperature for 1 hour, then probed with anti-Her2/ErB2 mAb (rabbit IgG, #2242, Cell Signaling) and anti-Tubulin (T9026, Sigma) as housekeeping control protein. HRP-conjugated goat anti-rabbit IgG (H+L) and HRP-conjugated horse anti-mouse IgG (H+L) were used as secondary Ab (#7074, #7076, Cell Signaling) and LumiGLO reagent, 20× Peroxide (#7003, Cell Signaling) was used for visualization.

[5] = tested on: human tumor cell line MDA-MB-435S; assay: MDA-MB-435S nude mouse xenograft model; format: in vivo; details: 300 mg/kg body weight IP, 5 times per week for 3 weeks
Method: FBS was obtained from Sigma-Aldrich Corp. (St. Louis, Mo., USA), and all other reagents were obtained from Invitrogen Corp. (Carlsbad, Calif., USA). Approximately 4−5×10(6) cells that had been cryopreserved in liquid nitrogen were rapidly thawed at 37° C. and transferred to a 175 cm^2 tissue culture flask containing 50 ml of growth media and then incubated at 37° C. in a 5% CO2 incubator. The growth media was replaced every 2-3 days until the flask became 90% confluent, typically in 5-7 days. To passage and expand the cell line, a 90% confluent flask was washed with 10 ml of room temperature phosphate buffered saline (PBS) and the cells were disassociated by adding 5 ml 1× Trypsin-EDTA (Invitrogen) and incubating at 37° C. until the cells detached from the surface of the flask. To inactivate the trypsin, 5 ml of growth media was added and then the contents of the flask were centrifuged to pellet the cells. The supernatant was aspirated and the cell pellet was resuspended in 10 ml of growth media and the cell number determined using a hemocytometer. […]
Six to eight week old, female Crl:CD-1-nuBR (nude) mice were obtained from Charles River Laboratories (Wilmington, Mass., USA). […] Tumor volumes (V) were calculated by caliper measurement of the width (W), length (L) and thickness (T) of tumors using the following formula: V=[…]×(L×W×T). […]

Hsp90 protein = assay: Malachite Green assay of ATPase activity of Hsp90; format: biochemical; details: 37° C., 4 hours
Method: Hsp90 protein was obtained from Stressgen (Cat#SPP-770). Assay buffer: 100 mM Tris-HCl, Ph7.4, 20 mM KCl, 6 mM MgCl2. […] Malachite green reagent was added to the reaction. […] The plate was read by an ELISA reader with an absorbance at 620 nm.

`C=CCNC1=C2C[C@@H](C)C[C@H](OC)[C@H](O)[C@@H](C)/C=C(\C)[C@H](OC(N)=O)[C@@H](OC)/C=C\C=C(/C)C(=O)NC(=CC1=O)C2=O` [Compound 17-AAG, 17-allylamino-17-demethoxygeldanamycin, reference compound] was tested, and the c-kit degradation (c-kit in HEL92.1.7 cells; 0.5 μM) was “could not induce c-kit degradation”, the c-kit degradation (c-kit in Kasumi-1 cells [1]; 0.5 μM) was “could not induce c-kit degradation” and the “c-Kit protein levels (Western blot)” value (c-kit in Kasumi-1 cells [2]; concentration not given) was “had no effect”. The “Growth rate of RERF-LC-AI^IVP tumors” value ([3]; 75 mg/kg body weight i.p.) was “inhibited tumor growth; also recorded: decreased the growth rate” and the “Maximum tolerated dose in nude mice” value ([3]; i.p., dosed at approximately the maximum tolerated dose) was ~75 mg/kg body weight.
With `CCc1cc(-c2nnc(S)n2-c2cccc3ccccc23)c(O)cc1O` [Compound 49, 3-(2,4-Dihydroxy-5-ethyl-phenyl)-4-(naphthalen-1-yl)-5-mercapto-[1,2,4] triazole] the “Degradation of Her2” value ([4]; 0.5 μM) was “partial degradated”, the “Degradation of Her2” value ([4]; 2 μM) was “complete degradation” and the “Degradation of Her2” value ([4]; 5 μM) was “complete degradation”. For the same molecule, the “Toxicity (effect on body weights)” value [5] was “not associated with significant toxicity” and the “Growth rate of MDA-MB-435S tumors” value ([5]; compared with 100 mg/kg 17-AAG) was “decreased the growth rate”.
`Oc1ccc(-c2nnc(S)n2-c2cccc3ccccc23)c(O)c1` [Compound 108, 3-(2,4-Dihydroxy-phenyl)-4-(naphthalen-1-yl)-5-mercapto-[1,2,4] triazole] was tested, and the “ATPase activity of Hsp90” value (Hsp90 protein; 4 μM) was “significant inhibition”, the “ATPase activity of Hsp90” value (Hsp90 protein; 40 μM) was “even greater inhibition” and the “Degradation of Her2” value ([4]; 0.5 μM) was “partially degradated”. For the same molecule, the “Degradation of Her2” value ([4]; 2 μM) was “partially degradated” and the “Degradation of Her2” value ([4]; 5 μM) was “almost completely degraded”.
`CCc1cc(-c2nnc(S)n2-c2ccc(OC)c3c2ccn3C(C)C)c(O)cc1O` [Compound 188, 3-(2,4-Dihydroxy-5-ethyl-phenyl)-4-(1-isopropyl-7-methoxy-indol-4-yl)-5-mercapto-[1,2,4] triazole] was tested, and the c-kit degradation (c-kit in HEL92.1.7 cells; 0.05 μM) was “induced c-kit degradation”, the c-kit degradation (c-kit in HEL92.1.7 cells; 0.5 μM) was “induced c-kit degradation” and the c-kit degradation (c-kit in Kasumi-1 cells [1]; 0.05 μM) was “induced c-kit degradation”. The c-kit degradation (c-kit in Kasumi-1 cells [1]; 0.5 μM) was “induced c-kit degradation”, the “Growth rate of RERF-LC-AI^IVP tumors” value ([3]; 200 mg/kg body weight i.p.) was “inhibited tumor growth; also recorded: decreased the growth rate” and the “Maximum tolerated dose in nude mice” value ([3]; mouse, in vivo, ip) was ~200 mg/kg body weight.
For `CC(C)c1cc(-c2nnc(S)n2-c2ccc3c(ccn3C)c2)c(O)cc1O` [Compound 221, 3-(2,4-dihydroxy-5-isopropyl-phenyl)-4-(N-methyl-indol-5-yl)-5-mercapto-[1,2,4] triazole], the c-kit degradation (c-kit in HEL92.1.7 cells; 0.05 μM) was “induced c-kit degradation”, the c-kit degradation (c-kit in HEL92.1.7 cells; 0.5 μM) was “induced c-kit degradation” and the c-kit degradation (c-kit in Kasumi-1 cells [1]; 0.05 μM) was “induced c-kit degradation”. For the same molecule, the c-kit degradation (c-kit in Kasumi-1 cells [1]; 0.5 μM) was “induced c-kit degradation”, the “c-Kit protein levels (Western blot)” value (c-kit in Kasumi-1 cells [2]; 100 nM) was “induced the degradation of c-Kit” and the “c-Kit protein levels (Western blot)” value (c-kit in Kasumi-1 cells [2]; 400 nM) was “induced the degradation of c-Kit”.

— patent publication US8901308B2, “Triazole compounds that modulate Hsp90 activity” (Synta Pharmaceuticals Corp., priority 2004, dated 2014)
